Measurements reported in patent US4742064A, “Antiviral carbocyclic analogs of xylofuranosylpurines” (Regents of the University of Minnesota, priority 1985, dated 1988).
“Also recorded” adds a separate entry of the source.

How the values were obtained:
[1] = tested on: P-388 mouse leukemia cells; experiment: P-388 mouse leukemia cell culture cytotoxicity assay; format: cell-based; conditions: for IC50: Mus musculus, P388, P-388 leukemia cells in culture, read-out: ED50 (inhibitory concentration, cytotoxicity); for cytotoxicity (in words) / cytotoxicity relative to the corresponding non-aza analogs 9a and 10a (in words): P-388 mouse leukemia cell culture
Description: *Assay Technique: R. G. Almquist and R. Vince, J. Med. Chem., 16, 1396

[2] = tested on: HSV-2 (MS); experiment: cytopathogenic effects (CPE)-inhibition procedure, HSV-2, Vero cells; conditions: for VR (virus rating), HSV-2 (MS): HSV-2 strain MS, Vero cell monolayers, VR ≥ 1.0 = definite activity, 0.5-0.9 marginal to moderate, < 0.5 usually no significant activity; for antiviral activity against HSV-2 (in words): Table II data
Description: (§1) The analogs were evalulated by a cytopathogenic effects (CPE)-inhibition procedure. The host cell culture systems employed were pre-grown Vero cell monolayers.
(§2) *VR = virus rating: A measurement of selective antiviral activity which
(§3) takes into account the degree of inhibition of virusinduced cytopathogeni
(§4) effects (CPE) and the degree of cytotoxicity produced by the test
(§5) compound, determined by a modification of the method of Ehrlich et al.
(§6) definite (+) antiviral activity, a VR of 0.5-0.9 indicates marginal to
(§7) moderate (+) antiviral activity, and a VR < 0.5 usually indicates no (-)
significant antiviral activity.

[3] = tested on: HSV-1 (E-377); experiment: cytopathogenic effects (CPE)-inhibition procedure, HSV-1, Vero cells; conditions: for VR (virus rating), HSV-1 (E-377): HSV-1 strain E-377, Vero cell monolayers, VR ≥ 1.0 = definite activity, 0.5-0.9 marginal to moderate, < 0.5 usually no significant activity; for antiviral activity against HSV-1 (in words): Table II data
Description: as §1, §2, §3, §4, §5, §6, §7
significant antiviral activity.

[4] = tested on: influenza virus; experiment: activity against an influenza virus; format: cell-based
[5] = tested on: HSV-2; conditions: prior literature; cited from earlier work
[6] = tested on: HSV-1; conditions: prior literature; cited from earlier work

| SMILES | IC50 [1] | cytotoxicity (in words) [1] | VR (virus rating), HSV-2 (MS) [2] | VR (virus rating), HSV-1 (E-377) [3] | antiviral activity against HSV-1 (in words) [3] | also measured |
| --- | --- | --- | --- | --- | --- | --- |
| Nc1nc2c(nnn2[C@@H]2C[C@H](CO)[C@H](O)[C@H]2O)c(=O)[nH]1 (relative stereo) [Compound 13a, (d1)-5-Amino-3,6-dihydro-3-[(1 α,2 β,3 α,5 α)-2,3-dihydroxy-4-(hydroxymethyl)cyclopentyl]-7H-1,2,3-triazalo[4,5-d]pyrimidin-7-one] | 1.6 µM | inhibition at the lowest concentration; also recorded: significant cytotoxicities | 1.3 | 2.4 | substantial antiviral activity | cytotoxicity relative to the corresponding non-aza analogs 9a and 10a (in words) [1]: more active; antiviral activity against HSV-2 (in words) [2]: active; activity against an influenza virus (in words) [4]: significant activity |
| Nc1nc2c(ncn2[C@@H]2C[C@H](CO)[C@H](O)[C@H]2O)c(=O)[nH]1 (relative stereo) [Compound 9a, (d1)-2-Amino-1,9-dihydro-9-[(1 α,2 β,3 α,4 α)-2,3-dihydroxy-4-(hydroxymethyl)cyclopentyl]-6H-purin-6-one] | 8.9 µM | significant cytotoxicities | 3.9 | 5.6 | substantial antiviral activity | antiviral activity against HSV-2 (in words) [2]: active; profile of activity in the antiviral assay (in words) ([3]; comparison among analogs of Table II): best profile of activity |
| Nc1nc(N)c2ncn([C@@H]3C[C@H](CO)[C@@H](O)[C@@H]3O)c2n1 (relative stereo) |  |  |  |  |  | activity against HSV-2 (in words) [5]: inactive; activity against HSV-1 (in words) [6]: exhibited activity |
| Nc1nc(N)c2ncn([C@@H]3C[C@H](CO)[C@H](O)[C@H]3O)c2n1 (relative stereo) [Compound 10a] | 39 µM |  |  | 2.7 | substantial antiviral activity |  |
| Nc1ncnc2c1ncn2[C@@H]1O[C@H](CO)[C@@H](O)[C@@H]1O.O [Ara-A, 9-β-D-arabinofuranosyladenine monohydrate, reference compound] |  |  | 1.6 | 1.7 |  |  |
| Nc1nc(N)c2nnn([C@@H]3C[C@H](CO)[C@H](O)[C@H]3O)c2n1 (relative stereo) [Compound 14a, (d1)-(1 α,2 β,3 α,5 α)-3-(5,7-Diamino-3H-1,2,3-triazalo[4,5-d]pyrimidin-3-yl)-5-(hydroxymethyl)-1,2-cyclopentanediol] | 5.3 µM | significant cytotoxicities |  | 2.0 | substantial antiviral activity | cytotoxicity relative to the corresponding non-aza analogs 9a and 10a (in words) [1]: more active |
| Nc1nc(Cl)c2nnn([C@@H]3C[C@H](CO)[C@H](O)[C@H]3O)c2n1 (relative stereo) [Compound 11, (d1)-(1 α,2 β,3 α,5 α)-3-(5-Amino-7-Chloro-3H-1,2,3-triazalo [4,5-d]pyrimidin-3-yl)-5-(hydroxymethyl)-1,2-cyclopentanediol] | 50 µM |  |  |  |  |  |
| COc1nc(N)nc2c1nnn2[C@@H]1C[C@H](CO)[C@H](O)[C@H]1O (relative stereo) [Compound 12, (d1)-(1 α,2 β,3 α,5 α)-3-(5-Amino-7-methoxy-3H-1,2,3-triazalo [4,5-d]pyrimidin-3-yl)-5-(hydroxymethyl)-1,2-cyclopentanediol] | 63 µM |  |  |  |  |  |
| Nc1nc(Cl)c2ncn([C@@H]3C[C@H](CO)[C@H](O)[C@H]3O)c2n1 (relative stereo) [Compound 8, (d1)-(1 α, 2 β, 3 α, 5 α)-3-(2-Amino-6-chloro-9H-purin-9-yl)-5-(hydroxymethyl)-1,2-cyclopentanediol] | 220 µM |  |  |  |  |  |
